Results as given in US7262052B1, “α-2/δ gene” (Warner Lambert Company, priority 1999, dated 2007).
Where “and” joins values, the source holds several entries; their conditions need not be identical. Equal values may be shown once.

B1: α2δC: novel human α2δ-C calcium channel subunit (SEQ ID NO 5), expressed from injected cRNA (protein, listed as Homo sapiens)
chain: MAGPGSPRRASRGASALLAAALLYAALGDVVRSEQQIPLSVVKLWASAFGGEIKSIAAKYSGSQLLQKKYKEYEKDVAIEEIDGLQLVKKLAKNMEEMFHKKSEAVRRLVEAAEEAHLKHEFDADLQYEYFNAVLINERDKDGNFLELGKEFILAPNDHFNNLPVNISLSDVQVPTNMYNKDPAIVNGVYWSESLNKVFVDNFDRDPSLIWQYFGSAKGFFRQYPGIKWEPDENGVIAFDCRNRKWYIQAATSPKDVVILVDVSGSMKGLRLTIAKQTVSSILDTLGDDDFFNIIAYNEELHYVEPCLNGTLVQADRTNKEHFREHLDKLFAKGIGMLDIALNEAFNILSDFNHTGQGSICSQAIMLITDGAVDTYDTIFAKYNWPDRKVRIFTYLIGREAAFADNLKWMACANKGFFTQISTLADVQENVMEYLHVLSRPKVIDQEHDVVWTEAYIDSTLTDDQGPVLMTTVAMPVFSKQNETRSKGILLGVVGTDVPVKELLKTIPKYKLGIHGYAFAITNNGYILTHPELRLLYEEGKKRRKPNYSSVDLSEVEWEDRDDVLRNAMVNRKTGKFSMEVKKTVDKGKRVLVMTNDYYYTDIKGTPFSLGVALSRGHGKYFFRGNVTIEEGLHDLEHPDVSLADEWSYCNTDLHPEHRHLSQLEAIKLYLKGKEPLLQCDKELIQEVLFDAVVSAPIEAYWTSLALNKSENSDKGVEVAFLGTRTGLSRINLFVGAEQLTNQDFLKAGDKENIFNADHFPLWYRRAAEQIPGSFVYSIPFSTGPVNKSNVVTASTSIQLLDERKSPVVAAVGIQMKLEFFQRKFWTASRQCASLDGKCSISCDDETVNCYLIDNNGFILVSEDYTQTGDFFGEIEGAVMNKLLTMGSFKRITLYDYQAMCRANKESSDGAHGLLDPYNAFLSAVKWIMTELVLFLVEFNLCSWWHSDMTAKAQKLKQTLEPCDTEYPAFVSERTIKETTGNIACEDCSKSFVIQQIPSSNLFMVVVDSSCLCESVAPITMAPIEIRYNESLKCERLKAQKIRRRPESCHGFHPEENARECGGAPSLQAQTVLLLLPLLLMLFSR

Tests used:
Human α2δ-B = molecular target: T1, Human α2δ-B (Homo sapiens, UniProt Q9NY47); assay: [3H]gabapentin saturation binding, membranes of transiently transfected COS-7 cells
T1 construct: transiently transfected with the full-length porcine α2δ-A, and human α2δ-B genes; expressed in transfected cells; host or cells: COS-7 cells, pcDNA3.1 vector, lipofectamine; membranes
Text: […]. […] […].
The filters were then counted in a scintillation counter.

[1] = tested on: voltage-gated Ca2+ channels (α1B, β1C subunits); assay: Ca2+ channel currents in Xenopus oocytes injected with cRNA, two-electrode voltage clamp; format: cell-based; conditions: for increase in current compared to no α2δ subunits: co-injected with α1B and β1C in Xenopus oocytes
Experimental: Since α2δ-C has sequence homology to α2δ-A, and α2δ-A functions as a subunit of VSCCs, experiments were undertaken to determine if α2δ-C can replace α2δ-A and produce functional VSCCs. Xenopus oocytes were isolated using standard techniques and injected with cRNA for α1B, β1C and α2δ-C subunits of voltage-gated Ca^2+ channels. Four days to 1 week following injection of cRNA, Ca^2+ channel currents were measured using two-electrode voltage clamp with 5 mM Ba^2+ as the charge carrier. Test pulses to +10 mV from a holding membrane potential of −80 mV were applied to evoke Ca^2+ channel currents. Peak inward currents evoked during the test pulse were measured. The amplitude of inward currents is proportional to the expression level of voltage-gated Ca^2+ channels.

T1 sequence (Q9NY47 19-1145 isoform Q9NY47-3 limits assumed): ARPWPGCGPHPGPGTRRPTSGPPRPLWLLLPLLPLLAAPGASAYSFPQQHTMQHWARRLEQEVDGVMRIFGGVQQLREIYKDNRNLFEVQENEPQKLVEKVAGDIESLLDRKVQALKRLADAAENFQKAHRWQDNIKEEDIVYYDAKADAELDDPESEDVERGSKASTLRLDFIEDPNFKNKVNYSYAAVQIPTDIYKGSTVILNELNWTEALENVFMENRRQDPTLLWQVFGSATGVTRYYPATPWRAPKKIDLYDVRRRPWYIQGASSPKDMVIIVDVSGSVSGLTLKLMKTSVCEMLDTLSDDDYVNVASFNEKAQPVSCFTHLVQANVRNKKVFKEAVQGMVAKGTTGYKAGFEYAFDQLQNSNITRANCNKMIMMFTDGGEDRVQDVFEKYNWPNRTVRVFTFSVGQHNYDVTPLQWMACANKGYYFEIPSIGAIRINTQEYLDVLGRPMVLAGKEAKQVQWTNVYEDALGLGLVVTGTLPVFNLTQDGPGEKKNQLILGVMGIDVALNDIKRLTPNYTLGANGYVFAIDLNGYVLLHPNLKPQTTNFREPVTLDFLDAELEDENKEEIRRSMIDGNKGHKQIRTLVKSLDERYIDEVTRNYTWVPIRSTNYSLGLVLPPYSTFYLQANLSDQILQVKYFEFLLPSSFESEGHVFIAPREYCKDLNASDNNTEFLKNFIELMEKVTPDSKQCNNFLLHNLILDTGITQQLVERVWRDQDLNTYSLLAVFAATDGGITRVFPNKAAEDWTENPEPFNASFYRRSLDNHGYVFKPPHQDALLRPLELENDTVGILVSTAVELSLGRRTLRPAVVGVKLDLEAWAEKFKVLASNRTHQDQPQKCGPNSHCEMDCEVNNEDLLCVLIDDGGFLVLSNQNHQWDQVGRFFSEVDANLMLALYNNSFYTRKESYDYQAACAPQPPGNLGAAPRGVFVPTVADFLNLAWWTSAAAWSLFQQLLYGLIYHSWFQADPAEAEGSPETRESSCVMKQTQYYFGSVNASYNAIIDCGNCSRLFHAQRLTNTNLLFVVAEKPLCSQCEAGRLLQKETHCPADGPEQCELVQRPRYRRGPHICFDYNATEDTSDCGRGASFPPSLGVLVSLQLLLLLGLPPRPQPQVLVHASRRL

Molecule | Kd (Human α2δ-B; KD, single determinations (n = 2), 21° C., COS-7 membranes) | Kd (Human α2δ-B; Mean KD, mean of n = 2) [nM] | binding of [3H]gabapentin (in words) (Human α2δ-B; full-length gene product expressed transiently in COS-7) | increase in current compared to no α2δ subunits [1] [fold] | peak inward current amplitude ([1]; co-injected with α1B and β1C, 5 mM Ba2+, test pulse to +10 mV from −80 mV, n=20, p<0.01 vs no α2δ) [nA]
NCC1(CC(=O)O)CCCCC1 [[3H]gabapentin, gabapentin] | 32.6 nM and 87.2 nM | 59.9 | high affinity |  | 
α2δA: known α2δ-A subunit of the voltage-sensitive calcium channel, comparator |  |  |  | 20 | 
B1 |  |  |  | 2 | 213±12
